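Growth conditions: 96-well plates. Treatment: test compound, 48 hours, 5 concentrations. Analysis: linear interpolation between bracketing concentrations; unreached endpoints set to highest concentration. TGI: total growth inhibition.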
Legend:
Experiment in all cases: inhibition of tumour cell growth, NCI panel, 48 h
U251 CNS = system: U251 CNS
A498 renal = system: A498 renal
LOX IMVI melanoma = system: LOX IMVI melanoma
CCRF-CEM leukemia = system: CCRF-CEM leukemia
MOLT-4 leukemia = system: MOLT-4 leukemia
CAKI-1 renal = system: CAKI-1 renal
OVCAR-8 ovarian = system: OVCAR-8 ovarian
MCF7 breast = system: MCF7 breast
BT-549 breast = system: BT-549 breast
HCT-15 colon = system: HCT-15 colon

Row | Compound | TGI (U251 CNS) [µM] | TGI (A498 renal) [µM] | TGI (LOX IMVI melanoma) [µM] | TGI (CCRF-CEM leukemia) [µM] | TGI (MOLT-4 leukemia) [µM] | TGI (CAKI-1 renal) [µM] | TGI (OVCAR-8 ovarian) [µM] | TGI (MCF7 breast) [µM] | TGI (BT-549 breast) [µM] | TGI (HCT-15 colon) [µM]
1 | O=C(O)C12C3C4(C(=O)O)C1C1(C(=O)O)C2C3(C(=O)O)C41 (configuration not stated) | > 100 | > 100 | > 100 | > 100 | > 100 | > 100 | > 100 | > 100 | > 100 | > 100
2 | CC(=O)N=S(NC(=O)c1ccc(C)cc1)C(Cl)(Cl)Cl (configuration not stated) | 59.3 | – | 80.1 | 51.5 | 83.8 | – | 33.1 | > 100 | – | > 100
3 | C/C(=C\CO)CC[C@@H]1[C@@]2(C)CCCC(C)(C)[C@@H]2CC[C@@]1(C)O | 31 | 30.7 | 30.2 | 51.5 | 69.2 | 72.1 | 31.8 | 30.8 | 32.6 | 33.7
4 | COc1cccc(Nc2nc3c([nH]2)c(=O)n(C)c(=O)n3C)c1 | – | – | > 10 | > 10 | > 10 | > 10 | > 10 | > 10 | – | > 10
5 | Nc1cc2nc(-c3ccccc3)cn2cn1 | > 100 | 80.3 | > 100 | > 100 | > 100 | > 100 | > 100 | > 100 | > 100 | > 100
6 | Cc1nc2ccccc2n1Cc1ccc(NC(=S)Nc2ccccc2)cc1 | > 100 | > 100 | > 100 | > 100 | > 100 | > 100 | > 100 | > 100 | > 100 | > 100
7 | COc1ccc(C(=C2C(=O)OC(=O)C2=C(C)C)c2ccc(OC)cc2)cc1 | > 100 | > 100 | > 100 | – | > 100 | > 100 | > 100 | > 100 | > 100 | > 100
8 | CC(=O)OC1COC(N2c3ccccc3[C@@H]3CCc4c([nH]c5ccccc45)[C@@H]32)C(OC(C)=O)C1OC(C)=O (mixture of isomers) | > 100 | 62 | – | > 100 | > 100 | > 100 | – | – | > 100 | > 100
9 | COc1cc2c3cc1Oc1cc(ccc1O)C[C@@H]1c4c(cc(OC)c(O)c4Oc4ccc(cc4)C[C@@H]3[N+](C)(C)CC2)CC[N+]1(C)C | > 100 | > 100 | 42.5 | – | > 100 | > 100 | > 100 | > 100 | > 100 | > 100
10 | CC1=NN(c2cccc(Cl)c2)C2(C1=Cc1ccc(N(C)C)cc1)C(Cl)C(=O)N2c1nc2ccccc2s1 (configuration not stated) | > 100 | > 100 | > 100 | > 100 | > 100 | > 100 | > 100 | > 100 | – | > 100
11 | CC12CCC(=O)[C@@]1(C)CCCC2=O (some centres not stated) | > 100 | – | > 100 | > 100 | > 100 | > 100 | > 100 | > 100 | > 100 | > 100
12 | O=C1CCC(CCc2nc3ccccc3[nH]2)(c2ccccc2)C(=O)N1 (configuration not stated) | > 100 | > 100 | > 100 | > 100 | – | > 100 | > 100 | > 100 | > 100 | > 100
13 | CCc1nc2c([nH]1)C(=O)c1ccccc1C2=O | > 100 | > 100 | – | > 100 | > 100 | > 100 | > 100 | – | – | > 100
14 | O/N=C/[C@H]1COC2(CCCCC2)O1 | > 100 | > 100 | > 100 | > 100 | > 100 | – | > 100 | > 100 | – | > 100
15 | CC1OC2OC3C(OCC(O)C3O)OC(=O)[C@]34CCC(C)(C)CC3C3=CCC5[C@@]6(C)C[C@H](O)[C@H](OC7OC(CO)C(O)C(O)C7OC7OC(COC(=O)CC(C)(O)CC(=O)OC1C(OC1OC(CO)C(O)C(O)C1O)C2O)C(O)C(O)C7O)[C@@](C)(CO)C6CC[C@@]5(C)[C@]3(C)CC4 (some centres not stated) | 9.26 | – | 12.1 | 14 | 12.7 | 17.7 | 13.1 | – | 19.3 | 15.7
16 | CCC1(c2ccc(OC)c(OC)c2)CCN2C(=O)C(O)CC21 (configuration not stated) | > 100 | – | > 100 | > 100 | > 100 | > 100 | – | > 100 | > 100 | > 100
17 | CC1=CC(O)CC(C)(C)C1/C=C/C(C)=C/C=C/C(C)=C/C=C/C=C(C)/C=C/C=C(C)/C=C/C1=C(C)CC(O)CC1(C)C (configuration not stated) | – | – | > 100 | > 100 | > 100 | 51.4 | 39.5 | 77.7 | 33.1 | 34.4
18 | O=c1ccn([C@@H]2C=C(CO)[C@@H](O)[C@H]2O)c(=O)[nH]1 | > 625 | – | > 625 | > 625 | – | > 625 | > 625 | > 625 | – | > 625
19 | COc1ccc(CCn2ccc(=O)c(O)c2C)cc1OC | > 100 | – | 78.9 | – | > 100 | 12 | > 100 | 61.5 | > 100 | > 100
20 | O=C(/C=C/CC(O)(c1ccccc1)c1ccccc1)Nc1ccccc1Cl | > 100 | > 100 | – | > 100 | > 100 | > 100 | > 100 | – | – | > 100
21 | Cc1cccc2c(N)c3cccc(C(=O)NCC[N+](C)(C)[O-])c3nc12 | > 100 | – | > 100 | > 100 | > 100 | > 100 | 36.6 | > 100 | 41.8 | > 100
22 | Oc1ccc(C[C@@H]2CN[C@H](Cc3ccc(O)c(Br)c3)CN2)cc1 | > 100 | > 100 | – | > 100 | > 100 | > 100 | > 100 | > 100 | > 100 | > 100
23 | CCOP(=O)(COCCn1nc(Br)c(=O)[nH]c1=O)OCC | > 100 | > 100 | > 100 | > 100 | > 100 | > 100 | > 100 | > 100 | – | > 100
24 | CCOC(=O)C(NC(=O)CC)(Nc1ccccc1F)C(F)(F)F (configuration not stated) | > 100 | – | > 100 | – | > 100 | > 100 | > 100 | > 100 | > 100 | > 100

Source: PubChem BioAssay (NCI)
